Test results from PubChem BioAssay AID328 (DTP/NCI, 2004).
Where “and” joins values, the source holds several entries; their conditions need not be identical. Equal values may be shown once. Toxic doses and inconclusive results are not listed.

System: BDF1 mice, P388 leukemia ip, median survival T/C
Experiment: NCI In Vivo Anticancer Drug Screen. Data for tumor model P388 Leukemia (intraperitoneal) in B6D2F1 (BDF1) mice
Conditions: endpoint: median survival time, higher = longer survival
Method in brief: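 Each value expresses how treatment altered survival: treated-mouse outcome over vehicle-mouse outcome, both groups bearing the transplanted tumour.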

SMILES: COC1C(O)CC(OC2CC(Oc3cc4cc5c(c(O)c4c(O)c3C)C(=O)[C@@H](OC3CC(OC4CC(OC6CC(C)(O)C(OC(C)=O)C(C)O6)C(O)C(C)O4)C(O)C(C)O3)[C@H]([C@H](OC)C(=O)[C@@H](O)[C@@H](C)O)C5)OC(C)C2OC(C)=O)OC1C (stereo not given in full)
- T/C (dose: 0.02 mg/kg/injection, schedule: Q01DX005 (ip), vehicle: saline): 166 % of control
- T/C (dose: 0.03 mg/kg/injection, schedule: Q01DX001 (ip), vehicle: saline): 109 % of control
- T/C (dose: 0.03 mg/kg/injection, schedule: Q01DX005 (ip), vehicle: saline): 168 % of control
- T/C (dose: 0.03 mg/kg/injection, schedule: Q01DX009 (ip), vehicle: saline): 150 % of control
- T/C (dose: 0.05 mg/kg/injection, schedule: Q01DX005 (ip), vehicle: clinical formulation): 183 % of control
- T/C (dose: 0.05 mg/kg/injection, schedule: Q01DX005 (ip), vehicle: saline): 166 % of control and 183 % of control and 187 % of control
- T/C (dose: 0.06 mg/kg/injection, schedule: Q01DX005 (ip), vehicle: saline): 172 % of control
- T/C (dose: 0.06 mg/kg/injection, schedule: Q01DX009 (ip), vehicle: saline): 172 % of control
- T/C (dose: 0.1 mg/kg/injection, schedule: Q01DX005 (ip), vehicle: clinical formulation): 200 % of control
- T/C (dose: 0.1 mg/kg/injection, schedule: Q01DX005 (ip), vehicle: saline): 187 % of control (2×) and 193 % of control
- T/C (dose: 0.13 mg/kg/injection, schedule: Q01DX001 (oral), vehicle: saline): 100 % of control
- T/C (dose: 0.13 mg/kg/injection, schedule: Q01DX001 (sc), vehicle: Klucel (hydroxypropylcellulose) (HPC)): 100 % of control
- T/C (dose: 0.13 mg/kg/injection, schedule: Q01DX005 (ip), vehicle: saline): 177 % of control
- T/C (dose: 0.13 mg/kg/injection, schedule: Q01DX009 (ip), vehicle: saline): 172 % of control
- T/C (dose: 0.13 mg/kg/injection, schedule: Q01DX010 (oral), vehicle: saline): 100 % of control
- T/C (dose: 0.13 mg/kg/injection, schedule: Q01DX010 (sc), vehicle: Klucel (hydroxypropylcellulose) (HPC)): 109 % of control
- T/C (dose: 0.15 mg/kg/injection, schedule: Q01DX005 (ip), vehicle: clinical formulation): 225 % of control
- T/C (dose: 0.15 mg/kg/injection, schedule: Q01DX005 (ip), vehicle: saline): 204 % of control
- T/C (dose: 0.2 mg/kg/injection, schedule: Q01DX005 (ip), vehicle: clinical formulation): 170 % of control
- T/C (dose: 0.2 mg/kg/injection, schedule: Q01DX005 (ip), vehicle: saline): 254 % of control and 260 % of control and 158 % of control
- T/C (dose: 0.25 mg/kg/injection, schedule: Q01DX001 (sc), vehicle: Klucel (hydroxypropylcellulose) (HPC)): 100 % of control
- T/C (dose: 0.25 mg/kg/injection, schedule: Q01DX009 (ip), vehicle: saline): 95 % of control
- T/C (dose: 0.25 mg/kg/injection, schedule: Q01DX010 (sc), vehicle: Klucel (hydroxypropylcellulose) (HPC)): 95 % of control
- T/C (dose: 0.25 mg/kg/injection, schedule: Q04DX003 (ip), vehicle: saline): 200 % of control
- T/C (dose: 0.4 mg/kg/injection, schedule: Q01DX001 (ip), vehicle: saline): 150 % of control
- T/C (dose: 0.5 mg/kg/injection, schedule: Q01DX001 (ip), vehicle: other): 175 % of control
- T/C (dose: 0.5 mg/kg/injection, schedule: Q01DX001 (oral), vehicle: saline): 95 % of control
- T/C (dose: 0.5 mg/kg/injection, schedule: Q01DX001 (sc), vehicle: Klucel (hydroxypropylcellulose) (HPC)): 109 % of control
- T/C (dose: 0.5 mg/kg/injection, schedule: Q01DX010 (oral), vehicle: saline): 109 % of control
- T/C (dose: 0.5 mg/kg/injection, schedule: Q04DX003 (ip), vehicle: saline): 100 % of control
- T/C (dose: 0.8 mg/kg/injection, schedule: Q01DX001 (ip), vehicle: saline): 170 % of control
- T/C (dose: 1.0 mg/kg/injection, schedule: Q01DX010 (oral), vehicle: saline): 100 % of control
- T/C (dose: 1.6 mg/kg/injection, schedule: Q01DX001 (ip), vehicle: saline): 162 % of control
- T/C (dose: 2.0 mg/kg/injection, schedule: Q01DX001 (oral), vehicle: saline): 109 % of control
- T/C (dose: 2.0 mg/kg/injection, schedule: Q01DX010 (oral), vehicle: saline): 100 % of control
- T/C (dose: 0.9 micrograms/kg/injection, schedule: Q01DX010 (ip), vehicle: saline): 90 % of control
- T/C (dose: 1.9 micrograms/kg/injection, schedule: Q01DX010 (ip), vehicle: saline): 86 % of control
- T/C (dose: 3.8 micrograms/kg/injection, schedule: Q01DX010 (ip), vehicle: saline): 100 % of control
- T/C (dose: 3.8 micrograms/kg/injection, schedule: Q03HX024 (ip), vehicle: saline): 177 % of control
- T/C (dose: 8.0 micrograms/kg/injection, schedule: Q01DX010 (ip), vehicle: saline): 150 % of control
- T/C (dose: 16.0 micrograms/kg/injection, schedule: Q01DX010 (ip), vehicle: saline): 160 % of control
- T/C (dose: 32.0 micrograms/kg/injection, schedule: Q01DX010 (ip), vehicle: saline): 180 % of control and 195 % of control
- T/C (dose: 60.0 micrograms/kg/injection, schedule: Q01DX010 (ip), vehicle: saline): 154 % of control
- T/C (dose: 62.0 micrograms/kg/injection, schedule: Q01DX009 (ip), vehicle: other): 150 % of control
- T/C (dose: 63.0 micrograms/kg/injection, schedule: Q01DX010 (ip), vehicle: saline): 163 % of control and 185 % of control and 210 % of control
- T/C (dose: 125.0 micrograms/kg/injection, schedule: Q01DX001 (ip), vehicle: clinical formulation): 154 % of control and 168 % of control and 181 % of control
- T/C (dose: 125.0 micrograms/kg/injection, schedule: Q01DX001 (ip), vehicle: water): 213 % of control
- T/C (dose: 125.0 micrograms/kg/injection, schedule: Q01DX009 (ip), vehicle: other): 166 % of control
- T/C (dose: 125.0 micrograms/kg/injection, schedule: Q01DX010 (ip), vehicle: saline): 300 % of control and 209 % of control
- T/C (dose: 200.0 micrograms/kg/injection, schedule: Q01DX009 (ip), vehicle: saline): 100 % of control
- T/C (dose: 250.0 micrograms/kg/injection, schedule: Q01DX001 (ip), vehicle: clinical formulation): 186 % of control and 195 % of control and 200 % of control
- T/C (dose: 250.0 micrograms/kg/injection, schedule: Q01DX001 (ip), vehicle: water): 250 % of control
- T/C (dose: 500.0 micrograms/kg/injection, schedule: Q01DX001 (ip), vehicle: clinical formulation): 236 % of control and 190 % of control and 213 % of control
- T/C (dose: 1000.0 micrograms/kg/injection, schedule: Q01DX001 (ip), vehicle: clinical formulation): 231 % of control
- T/C (dose: 2000.0 micrograms/kg/injection, schedule: Q01DX001 (ip), vehicle: clinical formulation): 100 % of control
